Values quoted from earlier work in patent US10332616B2, “Movable type method applied to protein-ligand binding” (University of Florida Research Foundation, Inc., priority 2013, dated 2019).
Where two headings read alike, the source gives them in different places.

[1] = experimental solvation free energy, neutral compounds test set
[2] = experimental solvation free energy, test set with 372 neutral compounds
[3] = aqueous solvation free energy, charged compounds (ions)

SMILES | Exp. ΔGsolv [1] [kcal/mol] | Exp. ΔGsolv [2] [kcal/mol] | also measured
O=S1(=O)CCCC1 [test2027] | -8.61 |  | 
Cc1[nH]c(=O)n(C(C)(C)C)c(=O)c1Cl [test1052] | -11.1 |  | 
ClC1=C(Cl)C2(Cl)C3C(Cl)C(Cl)CC3C1(Cl)C2(Cl)Cl (stereo not shown) [test1018] |  | -3.4 | 
C=CCN [i008, allylamine, reference compound] |  |  | Exp. ΔGsolv [3]: -72.00 kcal/mol
COc1c(Cl)ccc(Cl)c1C(=O)O [test1025] | -9.9 |  | 
Clc1ccc(Cl)cc1 [Compound 0176pdi] |  | -1.01 | 
Cc1cccc(N)c1 [i020, 3-methylaniline, reference compound] |  |  | Exp. ΔGsolv [3]: -69.60 kcal/mol
FC(F)Cl [Compound 0199chl] |  | -0.5 | 
COC(=O)c1ccccc1S(=O)(=O)NC(=O)Nc1nc(C)cc(C)n1 [test1051] | -20.3 |  | 
Nc1ccc(N=Nc2ccc([N+](=O)[O-])cc2)cc1 [test1058] |  | -11.2 | 
Nc1cccc(Cl)c1 [i125, 3-chloroaniline, reference compound] |  |  | Exp. ΔGsolv [3]: -74.70 kcal/mol
CCN(CC)c1c([N+](=O)[O-])cc(C(F)(F)F)c(N)c1[N+](=O)[O-] [test1027] | -5.7 |  | 
COP(=O)(OC)OC=C(Cl)Cl [Compound 0433pho] |  | -6.61 | 
CCC(=O)OC [Compound 0094met] | -2.93 |  | 
COCCO [Compound 0146met] | -6.77 |  | 
CC(=O)C(C)(C)C [Compound 0081dim] |  | -2.89 | 
CCC[N+](=O)[O-] [Compound 0131nit] |  | -3.34 | 
Oc1ccccc1 [Compound 0053phe] | -6.62 |  | 
COP(=O)(OC)OC [Compound 0220tri] | -8.7 |  | 
C1CNCCN1 [Compound 0109pip] | -7.4 |  | 
C=CCCl [Compound 0170chl] |  | -0.57 | 
COc1ccccc1 [Compound 0068ani] | -2.45 |  | 
C1=CCCC1 [Compound 0026cyc] |  | 0.56 | 

SMILES | Exp. ΔGsolv [1] [kcal/mol] | Exp. ΔGsolv [2] [kcal/mol] | also measured
CCCCN(CC)c1c([N+](=O)[O-])cc(C(F)(F)F)cc1[N+](=O)[O-] [test1011] | -3.5 |  | 
C=CCl [Compound 0169chl] |  | -0.59 | 
CC(N)=O [Compound 0233ethb] | -9.71 |  | 
C#CC=C [Compound 0148but] |  | 0.04 | 
Cc1ccc(Br)cc1 [Compound 0420pbr] |  | -1.39 | 
C#C [Compound 0030eth] |  | -0.01 | 
Clc1ccccc1-c1cccc(Cl)c1Cl [Compound 0416dcl] |  | -1.99 | 
CCCSP(=O)(OCC)Oc1ccc(Br)cc1Cl (stereo not shown) [Compound 0442pho] | -4.09 |  | 
ClC(Cl)(Cl)Br [Compound 0423brt] |  | -0.93 | 
COP(=S)(OC)Oc1ccc([N+](=O)[O-])cc1 [Compound 0441pho] | -7.62 |  | 
CC(C)C [Compound 0010met] |  | 2.32 | 
Nc1c(Cl)c(Cl)nc(C(=O)O)c1Cl [Compound 0428ami] | -11.96 |  | 
Nc1ccc([N+](=O)[O-])cc1 [test2022] |  | -9.45 | 
CCCl [Compound 0163chl] |  | -0.63 | 
C1CCNCC1 [Compound 0225pipa] | -5.11 |  | 
ClCC(Cl)(Cl)Cl [Compound 0407tet] |  | -1.15 | 
COP(=S)(OC)Oc1cc(Cl)c(Cl)cc1Cl [Compound 0444pho] |  | -5.06 | 
CN [Compound 0228met] | -4.56 |  | 
C=CCCCC [Compound 0029hex] |  | 1.68 | 
Cc1ccccc1[N+](=O)[O-] [Compound 0135met] |  | -3.59 | 
ClC=C(Cl)Cl [Compound 0173tri] |  | -0.39 | 
CN1CCOCC1 [Compound 0227Nme] | -6.34 |  | 
CCOP(=S)(OCC)SC(CCl)N1C(=O)c2ccccc2C1=O (stereo not shown) [test1023] | -5.7 |  | 

SMILES | Exp. ΔGsolv [1] [kcal/mol] | Exp. ΔGsolv [2] [kcal/mol] | also measured
CNC(=O)Oc1cccc2ccccc12 [test1015] | -9.5 |  | 
Cc1ccccn1 [Compound 0119met] |  | -4.63 | 
CN(C)C(=O)Nc1ccccc1 [Compound 0401amia] | -9.63 |  | 
COCOC [test0012] | -2.93 |  | 
CCCCC(=O)OC [Compound 0098met] | -2.57 |  | 
CCOP(=S)(OCC)SCSP(=S)(OCC)OCC [test1031] | -6.1 |  | 
O=C(O)C(F)(F)F [i118, trifluoroaceticacid, reference compound] |  |  | Exp. ΔGsolv [3]: -59.30 kcal/mol
Cc1nc(N(C)C)nc(OC(=O)N(C)C)c1C [test1063] |  | -9.4 | 
CNC [Compound 0104dim] | -4.29 |  | 
Nc1cnn(-c2ccccc2)c(=O)c1Cl [test1049] | -16.4 |  | 
CCCC [Compound 0004nbu] |  | 2.08 | 
C#CCCCC [Compound 0034hex] |  | 0.29 | 
C1CCNC1 [Compound 0108pyr] | -5.48 |  | 
CC(C)[N+](=O)[O-] [Compound 0132nit] |  | -3.14 | 
O=S1OC[C@@H]2[C@H](CO1)[C@@]1(Cl)C(Cl)=C(Cl)[C@]2(Cl)C1(Cl)Cl (stereo partly shown) [test1029] | -4.2 |  | 
CCCN(CCC)c1c([N+](=O)[O-])cc(C(F)(F)F)cc1[N+](=O)[O-] [test1056] |  | -3.3 | 
CCCCCCCO [Compound 0058hep] | -4.24 |  | 
CCOC(=O)CC(SP(=S)(OC)OC)C(=O)OCC (stereo not shown) [test1036] | -8.2 |  | 
CCCOC(C)=O [Compound 0097pro] | -2.86 |  | 
COc1ccc(C(=O)N(C)C)cc1 [test0005] | -11.01 |  | 
C[C@@H]1CCCC[C@@H]1C [Compound 0020cis] |  | 1.58 | 
CN(C)C [Compound 0107tri] | -3.23 |  | 
CCNc1nc(Cl)nc(NCC)n1 [test1050] | -10.2 |  | 

SMILES | Exp. ΔGsolv [1] [kcal/mol] | Exp. ΔGsolv [2] [kcal/mol] | also measured
Cn1cnc2c(N)ncnc21 [Compound 0402adn] |  | -13.6 | 
Nc1cccc(N)c1 [i023, 3-aminoaniline, reference compound] |  |  | Exp. ΔGsolv [3]: -65.80 kcal/mol
C1CCOCC1 [Compound 0244tet] | -3.12 |  | 
CC1CCCCC1 [Compound 0019met] |  | 1.71 | 
COC(=O)c1sccc1S(=O)(=O)NC(=O)Nc1nc(C)nc(OC)n1 [test1054] | -16.2 |  | 
C=COCC(F)(F)F [Compound 0214tri] | -0.12 |  | 
CSc1nc(NC(C)C)nc(NC(C)C)n1 [test1047] |  | -8.4 | 
OCC(F)(F)F [Compound 0207tri] | -4.31 |  | 
Cc1cccnc1 [Compound 0120met] |  | -4.77 | 
ClCCBr [Compound 0202bro] |  | -1.95 | 
Cc1cccc(O)c1 [Compound 0056mcr] | -5.49 |  | 
CCNc1nc(NC(C)(C)C)nc(SC)n1 [test1053] |  | -6.7 | 
CCCCCC [Compound 0006nhe] |  | 2.49 | 
COC=O [Compound 0091met] | -2.78 |  | 
CCOP(=S)(OCC)Oc1ccc(Cl)cc1Cl [Compound 0438pho] | -3.86 |  | 
C#CC [Compound 0031pro] |  | -0.31 | 
CCCC(=O)O [Compound 0088but] | -6.36 |  | 
Clc1cccc(-c2ccccc2)c1Cl [Compound 0415dcl] |  | -2.45 | 
Cc1cnccn1 [Compound 0117met] |  | -5.57 | 
CSc1ccccc1 [Compound 0144thi] | -2.73 |  | 
CNc1ccccc1 [Compound 0122Nme] |  | -4.68 | 
O=C(O)C(Cl)Cl [i120, dichloroaceticacid, reference compound] |  |  | Exp. ΔGsolv [3]: -62.30 kcal/mol
C1COCCN1 [Compound 0149mor] | -7.17 |  | 

SMILES | Exp. ΔGsolv [1] [kcal/mol] | Exp. ΔGsolv [2] [kcal/mol] | also measured
CCOP(=S)(OCC)Oc1cc(C)nc(C(C)C)n1 [test1024] | -6.5 |  | 
C [Compound 0001met] |  | 2 | 
CCCCN [Compound 0110but] | -4.29 |  | 
CCCC(=O)OC [Compound 0096met] | -2.83 |  | 
FC(F)(Cl)Cl [Compound 0421dfl] |  | 1.69 | 
CCCCCCC [Compound 0007nhe] |  | 2.62 | 
Brc1ccc(Br)cc1 [Compound 0187dib] |  | -2.3 | 
c1c[nH]cn1 [test0017] |  | -9.81 | 
CCCCCC(=O)O [Compound 0090hex] | -6.21 |  | 
CCCN(CCC)c1c([N+](=O)[O-])cc(S(C)(=O)=O)cc1[N+](=O)[O-] [test1040] | -8 |  | 
C#CCC [Compound 0032but] |  | -0.16 | 
C/C=C/CC [Compound 0028Epe] |  | 1.34 | 
Cc1ccccc1O [Compound 0055ocr] | -5.87 |  | 
CC(C)Br [Compound 0183bro] |  | -0.48 | 
Cn1c(=O)c2c(ncn2C)n(C)c1=O [test2004] | -12.64 |  | 
CCOP(=S)(OCC)SCSCC [test1045] | -4.4 |  | 
CCOP(=O)(OCC)OCC [Compound 0221tri] | -7.8 |  | 
FC(F)(F)F [Compound 0200tet] |  | 3.16 | 
CCC(C)c1cc([N+](=O)[O-])cc([N+](=O)[O-])c1O (stereo not shown) [test1028] |  | -6.2 | 
CC(=O)Nc1ccccc1O [test3004] | -11.61 |  | 
